In publication PMC9120017, “Inhibition mechanism of the chloride channel TMEM16A by the pore blocker 1PBC” (Nature Communications, 2022):
pIC50: −log10 of the molar value. Read-outs that look alike come from different tables or passages of the source.

Target: T1, mouse TMEM16A mutant Y514A (Mus musculus, UniProt Q8BHY3, Y514A)
T1 construct: expressed in transfected cells; host or cells: HEK293T
T1 sequence (Q8BHY3 1-960 Y514A): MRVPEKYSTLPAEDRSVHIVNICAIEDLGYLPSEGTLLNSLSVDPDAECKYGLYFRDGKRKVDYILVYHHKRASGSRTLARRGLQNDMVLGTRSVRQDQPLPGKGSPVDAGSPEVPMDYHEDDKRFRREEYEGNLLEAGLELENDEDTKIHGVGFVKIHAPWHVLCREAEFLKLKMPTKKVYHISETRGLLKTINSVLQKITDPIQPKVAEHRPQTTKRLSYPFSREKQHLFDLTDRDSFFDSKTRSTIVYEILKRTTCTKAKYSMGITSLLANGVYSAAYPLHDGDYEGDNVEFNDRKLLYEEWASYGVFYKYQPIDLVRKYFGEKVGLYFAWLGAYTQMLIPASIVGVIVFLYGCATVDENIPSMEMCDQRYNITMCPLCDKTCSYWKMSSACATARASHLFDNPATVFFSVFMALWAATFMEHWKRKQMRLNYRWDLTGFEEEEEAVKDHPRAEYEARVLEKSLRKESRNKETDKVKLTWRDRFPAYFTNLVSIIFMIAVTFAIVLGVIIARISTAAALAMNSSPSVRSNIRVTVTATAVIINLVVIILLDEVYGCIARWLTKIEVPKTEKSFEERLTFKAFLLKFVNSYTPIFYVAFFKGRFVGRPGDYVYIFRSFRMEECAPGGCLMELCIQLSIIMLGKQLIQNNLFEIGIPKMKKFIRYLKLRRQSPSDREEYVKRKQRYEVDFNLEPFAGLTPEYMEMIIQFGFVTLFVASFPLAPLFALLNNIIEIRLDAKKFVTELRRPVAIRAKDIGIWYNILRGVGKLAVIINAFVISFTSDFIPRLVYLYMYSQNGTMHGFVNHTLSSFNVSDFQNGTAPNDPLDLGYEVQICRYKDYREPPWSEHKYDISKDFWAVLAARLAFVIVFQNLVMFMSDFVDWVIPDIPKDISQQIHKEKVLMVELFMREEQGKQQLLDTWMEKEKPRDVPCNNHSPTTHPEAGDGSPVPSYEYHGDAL
Test: Inside-out patch recording of 1PBC block, mutant Y514A
Format: cell-based
Conditions: for remaining activity at 10 µM: 1PBC 10; for remaining activity at 10 µM / remaining activity at 30 µM / remaining activity at 100 µM: read-out: fraction of unblocked current; for remaining activity at 30 µM: 1PBC 30; for remaining activity at 100 µM: 1PBC 100
Procedure: HEK293T cells (ATCC CRL-1573) were maintained in Dulbecco’s modified Eagle’s medium (DMEM; Sigma-Aldrich) supplemented with 10 U ml^−1 penicillin, 0.1 mg ml^−1 streptomycin (Sigma-Aldrich), 2 mM L-glutamine (Sigma-Aldrich), and 10% FBS (Sigma-Aldrich) in a humidified atmosphere containing 5% CO2 at 37 °C. HEK293S GnTI^− cells (ATCC CRL-3022) were maintained in HyClone HyCell TransFx-H medium (GE Healthcare) supplemented with 10 U ml^−1 penicillin, 0.1 mg ml^−1 streptomycin, 4 mM L-glutamine, 0.15% poloxamer 188 (Sigma-Aldrich), and 1% FBS in an atmosphere containing 5% CO2 at 185 rpm at 37 °C. The ac splice variant of mouse TMEM16A (UniProt ID: Q8BHY3), mouse TMEM16B (UniProt ID: Q8CFW1), or mouse TMEM16F (UniProt ID: Q6P9J9) bearing a 3C cleavage site, a Venus YFP, a Myc tag, and a Streptavidin-binding peptide (SBP) downstream of the open reading frame in a modified pcDNA3.1 vector (Invitrogen) were used as described previously[21],[31]. Mutations were introduced using a modified QuikChange method[58] and were verified by sequencing.
HEK293T cells were transfected with 3–4 μg DNA per 6 cm Petri dish using the calcium phosphate co-precipitation method and were used within 24–96 h after transfection. Recordings were performed on inside-out patches excised from HEK293T cells expressing the construct of interest. Patch pipettes were pulled from borosilicate glass capillaries (O.D. 1.5 mm, I.D. 0.86 mm, Sutter Instrument) and were fire-polished with a microforge (Narishige) before use. Pipette resistance was typically 3–8 MΩ when filled with the recording solutions detailed below. Seal resistance was typically 4 GΩ or higher. Voltage-clamp recordings were made using Axopatch 200B, Digidata 1550, and Clampex 10.7 (Molecular Devices). Analog signals were filtered with the in-built 4-pole Bessel filter at 10 kHz and were digitized at 20 kHz. Solution exchange was achieved using a gravity-fed system through a theta glass pipette mounted on an ultra-fast piezo-driven stepper (Siskiyou). […] All recordings were performed at 20 °C.
A symmetrical ionic condition was used throughout. Stock solution with Ca^2+-EGTA contained 150 mM NaCl, 5.99 mM Ca(OH)2, 5 mM EGTA, and 10 mM HEPES at pH 7.40. Stock solution with EGTA contained 150 mM NaCl, 5 mM EGTA, and 10 mM HEPES at pH 7.40. Free Ca^2+ concentrations were adjusted by mixing the stock solutions at the required ratios calculated using the WEBMAXC program (http://web.stanford.edu/~cpatton/webmaxcS.htm). Patch pipettes were filled with the stock solution with Ca^2+-EGTA, which has a free Ca^2+ concentration of 1 mM. 1PBC (ChemBridge) stock was reconstituted in anhydrous DMSO (Sigma-Aldrich) at 100 mM and stored at −20 °C. Working solutions with 1PBC were prepared by serial dilution. Unless otherwise stated, experiments were performed at a saturating Ca^2+ concentration as shown in Supplementary Table 1 and the primary data were corrected for current rundown as described previously[21],[25].
Concentration-response relations, obtained from the ratio of the I-V plots before and after the application of the blocker, were fitted to the Hill equation,1 I/Imax=1/1+IC50/[blocker]^h where I/Imax is the normalized current responses, IC50 defines the concentration at which inhibition is at its half-maximum, and h is the Hill coefficient.

- pIC50 (0 mV, 2 µM Ca2+): 4.64
- remaining activity at 10 µM (0 mV): 71.6%
- remaining activity at 10 µM (20 mV): 67.7%
- remaining activity at 10 µM (40 mV): 65.8%
- remaining activity at 10 µM (60 mV): 59.8%
- remaining activity at 10 µM (80 mV): 58.2%
- remaining activity at 10 µM (100 mV): 57.1%
- remaining activity at 10 µM (120 mV): 53.3%
- remaining activity at 10 µM (140 mV): 53.7%
- remaining activity at 10 µM (-20 mV): 75.5%
- remaining activity at 10 µM (-40 mV): 78.8%
- remaining activity at 10 µM (-60 mV): 81.3%
- remaining activity at 10 µM (-80 mV): 82.9%
- remaining activity at 10 µM (-100 mV): 85.5%
- remaining activity at 10 µM (-120 mV): 87.1%
- remaining activity at 10 µM (-140 mV): 86.2%
- remaining activity at 30 µM (0 mV): 41%
- remaining activity at 30 µM (20 mV): 37.8%
- remaining activity at 30 µM (40 mV): 34.4%
- remaining activity at 30 µM (60 mV): 31.9%
- remaining activity at 30 µM (80 mV): 28.9%
- remaining activity at 30 µM (100 mV): 27.6%
- remaining activity at 30 µM (120 mV): 26.5%
- remaining activity at 30 µM (140 mV): 26.4%
- remaining activity at 30 µM (-20 mV): 44.3%
- remaining activity at 30 µM (-40 mV): 50%
- remaining activity at 30 µM (-60 mV): 56.5%
- remaining activity at 30 µM (-80 mV): 60.4%
- remaining activity at 30 µM (-100 mV): 64.5%
- remaining activity at 30 µM (-120 mV): 67.9%
- remaining activity at 30 µM (-140 mV): 70.2%
- remaining activity at 100 µM (0 mV): 19.2%
- remaining activity at 100 µM (20 mV): 15.9%
- remaining activity at 100 µM (40 mV): 14.2%
- remaining activity at 100 µM (60 mV): 13.7%
- remaining activity at 100 µM (80 mV): 12.7%
- remaining activity at 100 µM (100 mV): 11.3%
- remaining activity at 100 µM (120 mV): 11.7%
- remaining activity at 100 µM (140 mV): 12.2%
- remaining activity at 100 µM (-20 mV): 22.6%
- remaining activity at 100 µM (-40 mV): 25.4%
- remaining activity at 100 µM (-60 mV): 29.3%
- remaining activity at 100 µM (-80 mV): 32.8%
- remaining activity at 100 µM (-100 mV): 38%
- remaining activity at 100 µM (-120 mV): 42.9%
- remaining activity at 100 µM (-140 mV): 48.1%
- pIC50 (20 mV, 2 µM Ca2+): 4.71
- pIC50 (40 mV, 2 µM Ca2+): 4.76
- pIC50 (60 mV, 2 µM Ca2+): 4.84
- log-fold IC50 (change of mutant vs WT) (80 mV): 0.6902
- pIC50 (80 mV, 2 µM Ca2+): 4.88
- pIC50 (100 mV, 2 µM Ca2+): 4.90
- pIC50 (120 mV, 2 µM Ca2+): 4.95
- pIC50 (140 mV, 2 µM Ca2+): 4.94
- pIC50 (-20 mV, 2 µM Ca2+): 4.57
- pIC50 (-40 mV, 2 µM Ca2+): 4.49
- pIC50 (-60 mV, 2 µM Ca2+): 4.39
- pIC50 (-80 mV, 2 µM Ca2+): 4.32
- pIC50 (-100 mV, 2 µM Ca2+): 4.24
- pIC50 (-120 mV, 2 µM Ca2+): 4.16
- pIC50 (-140 mV, 2 µM Ca2+): 4.09
- pIC50 (Y514A, V 0 mV): 4.64
- pIC50 (Y514A, V 20 mV): 4.71
- pIC50 (Y514A, V 40 mV): 4.76
- pIC50 (Y514A, V 60 mV): 4.83
- pIC50 (Y514A, V 80 mV): 4.88
- pIC50 (Y514A, V 100 mV): 4.90
- pIC50 (Y514A, V 120 mV): 4.95
- pIC50 (Y514A, V 140 mV): 4.94
- pIC50 (Y514A, V -20 mV): 4.57
- pIC50 (Y514A, V -40 mV): 4.49
- pIC50 (Y514A, V -60 mV): 4.39
- pIC50 (Y514A, V -80 mV): 4.32
- pIC50 (Y514A, V -100 mV): 4.24
- pIC50 (Y514A, V -120 mV): 4.16
- pIC50 (Y514A, V -140 mV): 4.09
Compound: N#Cc1c(C(F)(F)F)cc(O)n2c1nc1ccccc12 [1PBC]
